Patent publication US9517227B2, “Dihydropyrazoles” (Merck Patent GmbH, priority 2011, dated 2016)

What was measured:
[1] = biological target: T1, follicle-stimulating hormone (FSH) receptor (Rattus norvegicus, UniProt P20395); test: Rat granulosa EC50 FSH (Assay B); type: cell-based; details: rat granulosa cells; for EC50: per Yanofsky et al. 2006
T1 construct: endogenous in cells; host or cells: rat granulosa cells
T1 sequence (P20395 18-692): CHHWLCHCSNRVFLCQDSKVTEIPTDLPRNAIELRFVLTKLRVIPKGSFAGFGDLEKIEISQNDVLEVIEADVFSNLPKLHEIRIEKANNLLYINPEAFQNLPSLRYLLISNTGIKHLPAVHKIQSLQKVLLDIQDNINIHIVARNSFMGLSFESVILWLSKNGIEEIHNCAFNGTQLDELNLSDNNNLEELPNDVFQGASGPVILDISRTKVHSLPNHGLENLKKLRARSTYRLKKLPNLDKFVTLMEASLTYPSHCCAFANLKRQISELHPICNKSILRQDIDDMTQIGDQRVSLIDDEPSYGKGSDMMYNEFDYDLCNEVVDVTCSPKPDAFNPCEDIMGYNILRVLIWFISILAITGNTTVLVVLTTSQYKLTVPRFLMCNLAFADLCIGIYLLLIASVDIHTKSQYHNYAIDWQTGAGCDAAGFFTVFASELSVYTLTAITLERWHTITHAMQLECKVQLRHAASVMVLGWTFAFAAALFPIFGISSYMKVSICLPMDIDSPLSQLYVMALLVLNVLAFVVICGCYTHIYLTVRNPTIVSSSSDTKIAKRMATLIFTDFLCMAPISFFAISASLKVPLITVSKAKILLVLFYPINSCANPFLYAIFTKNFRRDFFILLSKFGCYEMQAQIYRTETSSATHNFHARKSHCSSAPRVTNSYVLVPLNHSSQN
Experimental: Rat Granulosa EC50 FSH (Assay B)
The assay was performed pursuant to the teaching of Yanofsky et al. (2006) Allosteric activation of the follicle-stimulating hormone (FSH) receptor by selective, nonpeptide agonists. JBC 281(19): 13226-13233, which is incorporated by reference in the disclosure of the invention.

FSHR = biological target: T2, FSHR (Homo sapiens, UniProt P23945); test: EC50 of cyclic AMP production in CHO FSHR cells + EC20 FSH (Assay A); type: cell-based; details: CHO-FSHR-LUC cells, 0.265 pM FSH (EC20), cAMP HTRF, 1 h
T2 construct: expressed in transfected cells; host or cells: CHO (Cho-FSHR-LUC-1-1-43)
T2 sequence (P23945 18-695): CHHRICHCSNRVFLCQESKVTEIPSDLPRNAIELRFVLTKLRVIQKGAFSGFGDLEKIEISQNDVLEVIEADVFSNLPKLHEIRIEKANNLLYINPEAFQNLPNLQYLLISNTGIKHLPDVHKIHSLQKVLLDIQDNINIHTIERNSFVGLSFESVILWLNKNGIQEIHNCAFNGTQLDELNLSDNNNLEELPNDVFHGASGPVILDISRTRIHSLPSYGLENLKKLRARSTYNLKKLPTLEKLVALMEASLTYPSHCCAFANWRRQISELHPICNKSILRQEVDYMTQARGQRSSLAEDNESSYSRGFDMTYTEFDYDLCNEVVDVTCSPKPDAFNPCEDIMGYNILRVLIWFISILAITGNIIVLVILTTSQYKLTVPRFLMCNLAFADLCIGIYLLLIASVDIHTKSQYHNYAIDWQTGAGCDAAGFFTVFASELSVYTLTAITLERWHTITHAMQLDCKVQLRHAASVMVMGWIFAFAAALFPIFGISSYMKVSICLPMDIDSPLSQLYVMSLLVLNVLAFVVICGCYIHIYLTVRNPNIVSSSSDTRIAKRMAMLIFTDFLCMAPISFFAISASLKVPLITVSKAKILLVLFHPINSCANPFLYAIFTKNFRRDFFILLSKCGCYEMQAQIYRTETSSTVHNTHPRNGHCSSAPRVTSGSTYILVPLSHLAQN
Experimental: EC50 of Cyclic AMP Production in CHO FSHR Cells+EC20 FSH (Assay A)
2500 Cho-FSHR-LUC-1-1-43 cells were plated per well in 5 μl of phenol red free DMEM/F12+1% FBS. Cells were plated in 384 well, solid white low volume plates (Greiner 784075) by Multidrop. Cells were assayed by adding 100 μl of 2×EC20 FSH/IBMX in DMEM/F12+0.1% BSA) by Multidrop to 2 μl of test compound stamped in 384 well plates (compounds are diluted 1:50). The final FSH concentration was 0.265 pM, and the final IBMX concentration was 200 μM. The compound plate map was as follows: Column 1: 2 μl of DMSO; Column 2: 2 μl of DMSO; Columns 3-12 and 13-24: 2 μl of test compound, diluted 1:4 in 100% DMSO, or 2 μl of FSH, diluted 1:4 in DMEM/F12+0.1% BSA. The starting concentration for FSH was 50 nM (final concentration was 0.5 nM). Furthermore, Column 23 contained 2 μl of EC100 FSH reference (100×) (diluted in DMEM/F12+0.1% BSA) at a final concentration of 0.5 nM, and Column 24 contained 2 μl of 1 mM AS707664/2 reference compound 2. 5 μl of compound+EC20 FSH mixture were transferred to cell plates (1:2 dilution into 5 μl of cell media). The plates were incubated at 37° C. for 1 h. 10 μl of mixed HTRF (CisBio #62AM4PEC) reagents were added per well and incubated at room temperature for 1 h. The plates were read on Envision using the cAMP HTRF—low volume 384 well protocol. The readout was the calculated fluorescence ratio (665 nm/620 nm).

Row | SMILES | EC50 [1] | EC50 (FSHR) | Assay B: value given in % (rat granulosa) ([1]; meaning of % not stated)
1 | COc1ccc(C2=NN(C(=O)c3ccc(C)cc3)C(C)(C)C2)cc1OC [Compound 235, [3-(3,4-Dimethoxy-phenyl)-5,5-dimethyl-4,5-dihydro-pyrazol-1-yl]-p-tolyl-methanone] | 0.538 µM | 35.7 µM | –
2 | COc1ccc(C2=NN(C(=O)c3cccc(Br)c3)C(C)(C)C2)cc1OC [Compound 233, (3-Bromo-phenyl)-[3-(3,4-dimethoxy-phenyl)-5,5-dimethyl-4,5-dihydro-pyrazol-1-yl]-methanone] | 0.216 µM | 27.8 µM | –
3 | COc1ccc(C2=NN(C(=O)c3ccc(F)c(C(F)(F)F)c3)C(C)(C)C2)cc1OC [Compound 236, [3-(3,4-Dimethoxy-phenyl)-5,5-dimethyl-4,5-dihydro-pyrazol-1-yl]-(4-fluoro-3-trifluoromethyl-phenyl)-methanone] | 1.73 µM | 25.3 µM | –
4 | COc1ccc(C2=NN(C(=O)c3cccc(OC(F)(F)F)c3)C(C)(C)C2)cc1OC [Compound 231, [3-(3,4-Dimethoxy-phenyl)-5,5-dimethyl-4,5-dihydro-pyrazol-1-yl]-(3-trifluoromethoxy-phenyl)-methanone] | 1.15 µM | 23.8 µM | –
5 | COc1ccc(C2=NN(C(=O)c3cccc(C(F)(F)F)c3)C(C)(C)C2)cc1OC [Compound 234, [3-(3,4-Dimethoxy-phenyl)-5,5-dimethyl-4,5-dihydro-pyrazol-1-yl]-(3-trifluoromethyl-phenyl)-methanone] | 0.699 µM | 22.4 µM | –
6 | COc1ccc(C2=NN(C(=O)c3ccc(F)c(Cl)c3)C(C)(C)C2)cc1OC [Compound 237, (3-Chloro-4-fluoro-phenyl)-[3-(3,4-dimethoxy-phenyl)-5,5-dimethyl-4,5-dihydro-pyrazol-1-yl]-methanone] | 0.598 µM | 35 µM | –
7 | COc1ccc(C2=NN(C(=O)[C@@H](OC)c3ccccc3)CC2)cc1OC [Compound 292] | – | 29 µM | 186.00%
8 | COc1ccc(C2=NN(C(=O)Cc3cccc(F)c3)CC2)cc1OC [Compound 241, 1-[3-(3,4-Dimethoxy-phenyl)-4,5-dihydro-pyrazol-1-yl]-2-(3-fluoro-phenyl)-ethanone] | 0.342 µM | 31 µM | –
9 | CCc1cccc(C(=O)N2CCC(c3ccc(OC)c(OC)c3)=N2)c1 [Compound 93] | 0.726 µM | 27 µM | –
10 | COc1ccc(C2=NN(C(=O)c3ccc4c(c3)OCO4)C(C)(C)C2)cc1OC [Compound 131, [1,3]Dioxol-5-yl-[3-(3,4-dimethoxy-phenyl)-5,5-dimethyl-4,5-dihydro-pyrazol-1-yl]-methanone] | 0.413 µM | 23 µM | –

Stronger by EC50 (FSHR), values ahead:

Row | EC50 [1] | EC50 (FSHR) | Assay B: value given in % (rat granulosa) ([1]; meaning of % not stated) | SMILES
11 | 3.4 µM | 2.88 µM | – | COc1ccc(-c2ccn(C(=O)c3ccc4c(c3)OCO4)n2)cc1OC [Compound 148]
12 | 0.465 µM | 9.75 µM | – | COc1ccc(C2=NN(C(=O)c3cccc(Br)c3)CC2)cc1OC [Compound 61]
13 | 5.09 µM | 21 µM | – | COc1ccc(C2=NN(C(=O)c3cccc(C)c3)CC2)cc1OC [Compound 65]
14 | 0.348 µM | 11 µM | – | COc1ccc(C2=NN(C(=O)c3cccc(C(F)(F)F)c3)CC2)cc1OC [Compound 64]
15 | 0.729 µM | 8.61 µM | – | COc1ccc(C2=NN(C(=O)c3cccc(F)c3F)CC2)cc1OC [Compound 77]
16 | 0.0981 µM | 6.49 µM | – | COc1ccc(C2=NN(C(=O)c3cccc(Cl)c3)CC2)cc1OC [Compound 62]
